Assay results published in publication PMC6934184, “Selective DNA-PKcs inhibition extends the therapeutic index of localized radiotherapy and chemotherapy” (The Journal of Clinical Investigation, 2019).

Target: T1, BMX (Homo sapiens, UniProt P51813)
T1 construct: purchased Thermo Fisher Scientific (Life Technologies) SelectScreen
Experiment: SelectScreen Z'LYTE
Type: biochemical
Outline: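 NU5455 was profiled across the SelectScreen Broad panel of kinase activity and binding assays. Z'LYTE reactions such as CSF1R ran at apparent Km ATP, while the Adapta CAMK1 assay used ATP listed as 10. Values are given as percent.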

T1 sequence (P51813 whole entry): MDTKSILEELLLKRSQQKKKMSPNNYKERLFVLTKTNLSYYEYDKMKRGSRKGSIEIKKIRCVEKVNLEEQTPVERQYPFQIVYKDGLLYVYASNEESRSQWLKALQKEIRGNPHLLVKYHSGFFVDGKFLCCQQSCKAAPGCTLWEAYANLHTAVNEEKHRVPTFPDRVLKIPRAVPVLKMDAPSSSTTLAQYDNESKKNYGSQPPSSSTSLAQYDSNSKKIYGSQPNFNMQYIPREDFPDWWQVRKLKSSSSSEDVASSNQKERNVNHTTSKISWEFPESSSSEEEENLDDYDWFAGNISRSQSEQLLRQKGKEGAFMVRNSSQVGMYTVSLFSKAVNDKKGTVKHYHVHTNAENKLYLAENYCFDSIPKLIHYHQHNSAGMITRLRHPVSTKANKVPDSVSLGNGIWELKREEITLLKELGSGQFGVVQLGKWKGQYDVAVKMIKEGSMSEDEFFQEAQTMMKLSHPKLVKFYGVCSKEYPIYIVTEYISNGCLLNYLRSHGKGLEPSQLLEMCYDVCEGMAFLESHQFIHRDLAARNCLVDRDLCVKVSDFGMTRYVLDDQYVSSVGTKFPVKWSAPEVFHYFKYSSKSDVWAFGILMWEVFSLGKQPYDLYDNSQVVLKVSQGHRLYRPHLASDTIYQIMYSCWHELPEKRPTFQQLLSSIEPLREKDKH

CN(C(=O)CN1CCOCC1)c1ccc2sc3c(-c4cccc5c(=O)cc(N6CC7CCC(C6)O7)oc45)cccc3c2c1 [NU5455]
inhibition at 1 µM: 4.4%
